The record followed here is US12679878B2, “CRF2 receptor agonists and their use in therapy” (SANOFI, priority 2020, dated 2026).

In one series the target is T1, CRF1R receptor (Homo sapiens, UniProt P34998).
T1 construct: host or cells: CHO-K1 clone 2
T1 sequence (P34998 24-415): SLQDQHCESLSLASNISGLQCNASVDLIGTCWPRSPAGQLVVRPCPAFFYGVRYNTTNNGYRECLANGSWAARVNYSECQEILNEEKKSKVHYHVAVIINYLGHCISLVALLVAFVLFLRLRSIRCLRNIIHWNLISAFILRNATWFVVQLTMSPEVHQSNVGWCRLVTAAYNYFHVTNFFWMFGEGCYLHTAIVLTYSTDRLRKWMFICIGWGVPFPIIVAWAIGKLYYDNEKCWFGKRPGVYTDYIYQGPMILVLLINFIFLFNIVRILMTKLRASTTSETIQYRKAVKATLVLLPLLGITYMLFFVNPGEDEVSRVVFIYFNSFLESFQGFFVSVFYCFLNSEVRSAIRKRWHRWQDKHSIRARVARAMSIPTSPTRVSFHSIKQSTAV
The series can be described thus: cAMP activity at anti-target CRF1R, CRF1R-overexpression CHO cell line (Example 9). Type of series: cell-based. The conditions noted are these: CRF1R-overexpression CHO cell line; for EC50: 0% HSA; for Emax: read-out: Emax (%). An outline of the steps:
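Using thawed CRF1R-overexpressing CHO cells at 2000 per well, compound is applied for 30 min at RT in HBSS/HEPES buffer with IBMX. Cellular cAMP content is determined via HTRF, and percent activity is calculated against 1000 nM UCN2 defined as 100%.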

Series [1] can be described thus: Solubility in buffer systems by UPLC-UV (Example 13). The format is physicochemical. An outline of the steps: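 Quantitation used UV peak area from UPLC of the 1:10-diluted supernatant, set against a reference-compound standard curve with extinction coefficients adjusted for amino acid sequence.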
The subject of another series is rat CRF2R α receptor. The series is described as follows: cAMP agonism at rat CRF2R α receptor in A7R5 rat aortic smooth muscle cells (Example 8). The note with it: cAMP HTRF, A7R5 rat aortic smooth muscle cell line, 0% HSA. The format is cell-based. An outline of the steps:
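Potency (EC50) is the concentration reaching half-maximal activation, with responses scaled so that 1000 nM urocortin 2 equals 100%. Intracellular cAMP was quantified by homogeneous time-resolved fluorescence at 665/620 nm, 1 h after lysis-buffer reagents. Compound stimulation lasted 30 min at room temperature on 2000 IBMX-treated (2 mM) cells per well in HEPES-buffered HBSS.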
A general note: Time-resolved FRET reads energy transfer from a long-lived donor to a nearby acceptor.

Another series concerns the target T2, human CRF2α receptor (Homo sapiens, UniProt Q13324).
T2 construct: expressed in transfected cells; host or cells: TeloHEAC
T2 sequence (Q13324 1-411): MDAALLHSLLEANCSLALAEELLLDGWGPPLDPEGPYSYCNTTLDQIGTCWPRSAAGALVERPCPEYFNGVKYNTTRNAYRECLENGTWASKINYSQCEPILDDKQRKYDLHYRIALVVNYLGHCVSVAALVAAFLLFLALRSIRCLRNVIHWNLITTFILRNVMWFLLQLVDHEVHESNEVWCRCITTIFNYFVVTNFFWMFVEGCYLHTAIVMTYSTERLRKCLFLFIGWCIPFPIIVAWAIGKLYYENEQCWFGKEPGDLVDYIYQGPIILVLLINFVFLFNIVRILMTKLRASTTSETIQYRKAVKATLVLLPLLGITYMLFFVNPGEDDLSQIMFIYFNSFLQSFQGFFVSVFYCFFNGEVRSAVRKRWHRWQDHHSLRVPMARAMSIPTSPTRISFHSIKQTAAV
The series can be described thus: cAMP agonism at human CRF2 α receptor in TeloHEAC cells (Example 7). Type of series: cell-based. The note with it: cAMP HTRF, TeloHEAC cells stably expressing human CRF2 α. Summed up: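 HTRF ratio 665/620 nm, read 1 h after lysis reagents, reports cAMP. Cells: thawed stocks, 2000/well, 30 min RT with compound in HBSS, 20 mM HEPES, 0 or 0.1% HSA, 2 mM IBMX. Activity normalised to UCN2 1000 nM = 100%; EC50 from half-maximal activation.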

A short description of series [2]: Physical stability, Thioflavin T fibrillation assay (Example 14). The format is physicochemical. The conditions noted are these: Buffer B: 100 mM acetate buffer, pH 4.5, 2.7 mg/ml m-cresol; 3 mg/ml; 37° C. shaking. The procedure: The physical stability of the compounds was assessed using a Thioflavin T (ThT) assay.
The time course for fibril formation often follows the characteristic shape of a sigmoidal curve and can be separated into three regions: a lag phase, a fast growth phase, and a plateau phase. The typical fibril formation process starts with the lag phase in which the amount of partially folded peptide turned into fibrils is not significant enough to be detected. The lag-time corresponds to the time the critical mass of the nucleus is built. Afterwards, a drastic elongation phase follows and fibril concentration increases rapidly. Therefore, by measuring the increase in fluorescence intensity attributable to ThT as well as the lag time of the increase, the fibrillation tendency of a peptide can be determined, thereby providing a measure of the physical stability of the peptide.
In the present study, test compounds were diluted in buffer to a final concentration of 3 mg/ml.
The fibrillation tendencies of the peptides were determined under stress using a Fluoroskan Ascent FL or Fluoroskan Ascent fluorometer. […] Plates were sealed with Scotch Tape (Quiagen). Samples were stressed by continuous cycles of 10 s shaking at 960 rpm and 50 s rest period at 37° C. Fibril development was monitored by measuring fluorescence intensity every 20 minutes. For each sample, eight replicates were tested.

Where [3] appears, read: pH 4.5, Solubility in Buffer B [mg/ml].
[4] abbreviates: pH 7.4, Solubility in Buffer C [mg/ml].
Where [5] appears, read: 0% HSA, read-out: EC50 [nM], 0% HSA.

The structures appear in SMILES notation. ≈ marks a conversion by molar mass, not a printed value. Where two headings read alike, the source gives them in different places. Starred links: 1 amine or outer side, 2 acyl side, 3 side chain; linkers in the order of their positions; H or OH if unused. Non-standard residues stand in square brackets, D forms with d. Residues, ends and D or L forms follow the SMILES beside them. Groups on a side chain read outwards from the residue. *: point of attachment. C18 diacid = O=C(O)CCCCCCCCCCCCCCCCC(=O)*; γGlu = O=C(O)[C@H](CCC(=O)[*:2])N[*:1]; AEEA = NCCOCCOCC(=O)O; Aib = CC(C)(N)C(=O)O

For orientation: EC50 means the concentration needed to bring the measured effect to its halfway point. As a reminder, the Emax is the maximal effect, on the per cent scale that the assay sets. One may read the solubility as the concentration that dissolves in the medium under given conditions. A low value points to little dissolved substance. With `CC[C@H](C)[C@H](N)C(=O)N[C@H](C(=O)N[C@@H](CC(C)C)C(=O)N[C@@H](CO)C(=O)N[C@@H](CC(C)C)C(=O)N[C@@H](CC(=O)O)C(=O)N[C@H](C(=O)N1CCC[C@H]1C(=O)N[C@H](C(=O)N[C@@H](CCCCN)C(=O)N[C@@H](CC(C)C)C(=O)N[C@@H](CCCCNC(=O)COCCOCCNC(=O)COCCOCCNC(=O)CC[C@H](NC(=O)CCCCCCCCCCCCCCCCC(=O)O)C(=O)O)C(=O)N[C@@H](CCC(N)=O)C(=O)N[C@H](C(=O)N[C@@H](CC(C)C)C(=O)N[C@@H](CC(C)C)C(=O)N[C@@H](CCC(=O)O)C(=O)N[C@@H](CCC(N)=O)C(=O)N[C@@H](CCC(=O)O)C(=O)N[C@@H](CCCCN)C(=O)N[C@@H](CCC(N)=O)C(=O)N[C@@H](CCCCN)C(=O)N[C@@H](CCCCN)C(=O)N[C@@H](CCC(N)=O)C(=O)N[C@@H](CCCNC(=N)N)C(=O)N[C@@H](CCC(=O)O)C(=O)N[C@@H](CCC(N)=O)C(=O)N[C@@H](C)C(=O)N[C@@H](CCC(=O)O)C(=O)N[C@H](C(=O)N[C@@H](CC(N)=O)C(=O)N[C@@H](CCCCN)C(=O)N[C@@H](CCC(N)=O)C(=O)N[C@H](C(=O)N[C@@H](CC(C)C)C(=O)N[C@@H](C)C(=O)N[C@@H](CCC(N)=O)C(=O)N[C@H](C(N)=O)C(C)C)[C@@H](C)CC)[C@@H](C)O)[C@@H](C)CC)[C@@H](C)CC)C(C)C)C(C)C` [compound 67] (H-IVLSLDVPIKLK([AEEA-AEEA-γGlu-C18 diacid])QILLEQEKQKKQREQAETNKQILAQV-NH2; N-terminus assumed), the values for the EC50 on CRF1R receptor, in the series on rat CRF2R α receptor and on human CRF2α receptor (setting [5]) were more than 1000 nM, 0.66 nM and 0.57 nM, respectively. Moreover, the Emax on CRF1R receptor came out at 9.18%. For the same molecule, the solubility at 1 h in series [1] (setting [3]) stood at 6800 µg/mL (≈ 1320 µM); in series [1] (setting [4]) it was 7500 µg/mL (≈ 1450 µM).

Consider `CC[C@H](C)[C@H](N)C(=O)N[C@H](C(=O)N[C@@H](CC(C)C)C(=O)N[C@@H](CO)C(=O)N[C@@H](CC(C)C)C(=O)N[C@@H](CC(=O)O)C(=O)N[C@H](C(=O)N1CCC[C@H]1C(=O)N[C@H](C(=O)N[C@@H](CCCCN)C(=O)N[C@@H](CC(C)C)C(=O)N[C@@H](CCCCNC(=O)COCCOCCNC(=O)COCCOCCNC(=O)CC[C@H](NC(=O)CCCCCCCCCCCCCCCCC(=O)O)C(=O)O)C(=O)N[C@@H](CCC(N)=O)C(=O)N[C@H](C(=O)N[C@@H](CC(C)C)C(=O)N[C@@H](CC(C)C)C(=O)N[C@@H](CCC(=O)O)C(=O)N[C@@H](CCC(N)=O)C(=O)N[C@@H](CCC(=O)O)C(=O)N[C@@H](CCCCN)C(=O)N[C@@H](CCC(N)=O)C(=O)N[C@@H](CCCCN)C(=O)NC(C)(C)C(=O)N[C@@H](CCC(N)=O)C(=O)N[C@@H](CCCNC(=N)N)C(=O)N[C@@H](CCC(=O)O)C(=O)N[C@@H](CCC(N)=O)C(=O)N[C@@H](C)C(=O)N[C@@H](CCC(=O)O)C(=O)N[C@H](C(=O)N[C@@H](CC(N)=O)C(=O)N[C@@H](CCCCN)C(=O)N[C@@H](CCC(N)=O)C(=O)N[C@H](C(=O)N[C@@H](CC(C)C)C(=O)N[C@@H](C)C(=O)N[C@@H](CCC(N)=O)C(=O)N[C@H](C(N)=O)C(C)C)[C@@H](C)CC)[C@@H](C)O)[C@@H](C)CC)[C@@H](C)CC)C(C)C)C(C)C` [compound 79] (H-IVLSLDVPIKLK([AEEA-AEEA-γGlu-C18 diacid])QILLEQEKQK[Aib]QREQAETNKQILAQV-NH2; N-terminus assumed), for which the half-maximal effective concentration (EC50) is more than 1000 nM on CRF1R receptor, 3.99 nM with rat CRF2R α receptor and 0.46 nM on human CRF2α receptor (setting [5]). The Emax on CRF1R receptor stood at 8.74%. The solubility at 1 h is 18900 µg/mL (≈ 3700 µM) in series [1] (setting [3]) and more than 8800 µg/mL in series [1] (setting [4]).

Regarding `CC[C@H](C)[C@H](N)C(=O)N[C@H](C(=O)N[C@@H](CC(C)C)C(=O)N[C@@H](CO)C(=O)N[C@@H](CC(C)C)C(=O)N[C@@H](CC(=O)O)C(=O)N[C@@H](C(=O)N1CCC[C@H]1C(=O)N[C@H](C(=O)N[C@@H](CCCCN)C(=O)N[C@@H](CC(C)C)C(=O)N[C@@H](CCCCNC(=O)COCCOCCNC(=O)COCCOCCNC(=O)CC[C@H](NC(=O)CCCCCCCCCCCCCCCCC(=O)O)C(=O)O)C(=O)N[C@@H](CCC(N)=O)C(=O)N[C@H](C(=O)N[C@@H](CC(C)C)C(=O)N[C@@H](CC(C)C)C(=O)N[C@@H](CCC(=O)O)C(=O)N[C@@H](CCC(N)=O)C(=O)N[C@@H](CCC(=O)O)C(=O)N[C@@H](CCCNC(=N)N)C(=O)N[C@@H](CCC(N)=O)C(=O)N[C@@H](CCCCN)C(=O)NC(C)(C)C(=O)N[C@@H](CCC(N)=O)C(=O)N[C@@H](CCCNC(=N)N)C(=O)N[C@@H](CCC(N)=O)C(=O)N[C@@H](CCC(N)=O)C(=O)N[C@@H](C)C(=O)N[C@@H](CCC(=O)O)C(=O)N[C@@H](CCCCN)C(=O)N[C@@H](CC(N)=O)C(=O)N[C@@H](CCCCN)C(=O)N[C@@H](CCC(N)=O)C(=O)N[C@H](C(=O)N[C@@H](CC(C)C)C(=O)N[C@@H](C)C(=O)N[C@@H](CCC(N)=O)C(=O)N[C@H](C(N)=O)C(C)C)[C@@H](C)CC)[C@@H](C)CC)[C@@H](C)CC)C(C)C)C(C)C` [compound 131] (H-IVLSLD[dV]PIKLK([AEEA-AEEA-γGlu-C18 diacid])QILLEQERQK[Aib]QRQQAEKNKQILAQV-NH2), the “Increase in FI (fluorescence intensity)” value in series [2] is “No”. Further, in series [2], the “Lag time” value is on record as more than 45 h. For the same molecule, the EC50 was determined as 0.39 nM in the series with rat CRF2R α receptor; 0.11 nM on human CRF2α receptor (setting [5]); 2.44 nM on human CRF2α receptor (0.1% HSA, read-out: EC50 [nM], 0.1% HSA).
